# From patent publication US20050171190A1, “Substituted 5-chroman-5-YL-ethylamine compounds and their use for the treatment of glaucoma” (Alcon, Inc., priority 2002, published 2005)
# Where two headings read alike, the source gives them in different places.
# How the values were obtained:
# 5-HT2 receptors = settings: cited from earlier work
# 5-HT2A receptor [1] = target: 5-HT2A receptor (Homo sapiens, UniProt P28223); settings: cited from earlier work
# [2] = drug discrimination studies; cited from earlier work
# 5-HT2C receptor = target: T1, 5-HT2C receptor (Homo sapiens, UniProt P28335); settings: cited from earlier work
# T1 sequence (P28335 33-458): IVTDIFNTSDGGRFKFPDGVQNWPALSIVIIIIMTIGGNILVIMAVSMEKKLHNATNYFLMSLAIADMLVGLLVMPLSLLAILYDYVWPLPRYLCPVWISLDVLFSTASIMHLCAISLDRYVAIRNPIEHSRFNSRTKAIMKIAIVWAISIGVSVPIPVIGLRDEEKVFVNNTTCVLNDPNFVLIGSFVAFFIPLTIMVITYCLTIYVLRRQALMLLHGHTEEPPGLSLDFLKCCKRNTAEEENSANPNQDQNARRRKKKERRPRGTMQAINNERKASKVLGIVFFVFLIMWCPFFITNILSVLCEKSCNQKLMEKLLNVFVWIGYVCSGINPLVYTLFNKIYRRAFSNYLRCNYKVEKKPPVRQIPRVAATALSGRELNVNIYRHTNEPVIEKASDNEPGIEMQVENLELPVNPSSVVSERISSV
# [3] = monkey; due to its α1A receptor activity; cited from earlier work
# [4] = rabbits; cited from earlier work
# 5-HT2A Receptor [5] = target: T2, 5-HT2A Receptor (Rattus norvegicus, UniProt P14842); experiment: 5-HT2 functional assay: [Ca2+]i mobilization (FLIPR); assay type: cell-based
# T2 construct: endogenous in cells; host or cells: A7r5 rat vascular smooth muscle cells
# Experimental: The receptor-mediated mobilization on intracellular calcium ([Ca2+]i) was studied using the Fluorescence Imaging Plate Reader (FLIPR) instrument. Rat vascular smooth muscle cells, A7r5, were grown in a normal media of DMEM/10% FBS and 10 μg/mL gentamycin. Confluent cell monolayers were trypsinized, pelleted, and re-suspended in normal media. Cells were seeded in a 50 μL volume at a density of 20,000 cells/well in a black wall, 96-well tissue culture plate and grown for 2 days.
# On the day of the experiment, one vial of FLIPR Calcium Assay Kit dye was re-suspended in 50 mL of a FLIPR buffer consisting of Hank's Balanced Salt Solution (HBSS), 20 mM HEPES, and 2.5 mM probenecid, pH 7.4. […]
# The compound plate and cell plate were placed in the FLIPR instrument. At the beginning of an experimental run, a signal test was performed to check the basal fluorescence signal from the dye-loaded cells and the uniformity of the signal across the plate. The basal fluorescence was adjusted between 8000-12000 counts by modifying the exposure time, the camera F-stop, or the laser power. […] Fluorescence data were collected in real-time at 1.0 sec intervals for the first 60 secs and at 6.0 sec intervals for an additional 120 secs. Responses were measured as peak fluorescence intensity minus basal and where appropriate were expressed as a percentage of a maximum 5-HT-induced response. […]
# 5-HT2A Receptor [6] = experiment: 5-HT2 receptor binding assay ([125I]DOI competition); set-up: species or system rat or human; settings: inhibition of [125I]DOI binding, cerebral cortex homogenates
# Experimental: Aliquots of post mortem rat or human cerebral cortex homogenates (400 μL) dispersed in 50 mM Tris-HCl buffer (pH 7.4) are incubated with [125I]DOI (80 pM final) in the absence or presence of methiothepin (10 μM final) to define total and non-specific binding, respectively, in a total volume of 0.5 mL. The assay mixture is incubated for 1 hour at 23° C. in polypropylene tubes and the assays terminated by rapid vacuum filtration over Whatman GF/B glass fiber filters previously soaked in 0.3% polyethyleneimine using ice-cold buffer. Test compounds (at different concentrations) are substituted for methiothepin. Filter-bound radioactivity is determined by scintillation spectrometry on a beta counter. The data are analyzed using a non-linear, iterative curve-fitting computer program (Bowen et al. 1995) to determine the compound affinity parameter. The concentration of the compound needed to inhibit the [125I]DOI binding by 50% of the maximum is termed the IC50 value.
# T2 sequence (P14842 whole entry): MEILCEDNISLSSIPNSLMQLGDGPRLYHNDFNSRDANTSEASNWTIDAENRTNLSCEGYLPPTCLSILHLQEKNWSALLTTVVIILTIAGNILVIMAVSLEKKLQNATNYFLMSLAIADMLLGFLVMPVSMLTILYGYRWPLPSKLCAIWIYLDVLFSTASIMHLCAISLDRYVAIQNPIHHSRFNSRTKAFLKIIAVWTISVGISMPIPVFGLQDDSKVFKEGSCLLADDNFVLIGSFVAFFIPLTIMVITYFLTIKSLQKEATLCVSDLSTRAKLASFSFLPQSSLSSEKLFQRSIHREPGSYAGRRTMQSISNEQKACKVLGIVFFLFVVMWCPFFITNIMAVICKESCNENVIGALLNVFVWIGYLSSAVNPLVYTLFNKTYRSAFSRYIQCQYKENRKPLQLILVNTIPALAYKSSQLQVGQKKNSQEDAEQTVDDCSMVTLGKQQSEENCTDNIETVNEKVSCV
# 5-HT2A receptor, sequence (P28223 whole entry): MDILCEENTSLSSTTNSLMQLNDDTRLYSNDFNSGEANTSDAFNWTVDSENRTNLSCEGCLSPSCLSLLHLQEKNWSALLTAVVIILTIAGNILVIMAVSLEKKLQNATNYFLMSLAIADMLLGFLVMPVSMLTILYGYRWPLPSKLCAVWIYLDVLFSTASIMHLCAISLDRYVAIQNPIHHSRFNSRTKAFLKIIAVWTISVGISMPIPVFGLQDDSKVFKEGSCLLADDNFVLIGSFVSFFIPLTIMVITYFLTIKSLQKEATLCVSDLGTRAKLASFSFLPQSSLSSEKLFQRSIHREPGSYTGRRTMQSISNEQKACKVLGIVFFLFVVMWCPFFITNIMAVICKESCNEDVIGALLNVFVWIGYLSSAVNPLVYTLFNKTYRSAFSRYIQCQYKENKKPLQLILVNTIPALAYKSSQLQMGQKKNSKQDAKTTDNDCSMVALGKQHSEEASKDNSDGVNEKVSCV
structure (smiles),measurement,setting,value
"COc1cc(CCN)c2c(c1OC)OCC2 [2-(6,7-Dimethoxy-2,3-dihydro-benzofuran-4-yl)-ethylamine]",affinity for 5-HT2 receptors,5-HT2 receptors,have affinity
"COc1cc(Br)c2c(c1CC(C)N)CCO2 (stereo not drawn) [2-(7-bromo-5-methoxy-2,3-dihydro-benzofuran-4-yl)-1-methylethylamine]",affinity for the 5-HT2A receptor,5-HT2A receptor [1],high affinity
same,generalization to LSD,[2],generalize to LSD
CC(N)Cc1cccc2occc12 (stereo not drawn) [2-benzofuran-4-yl-1-methylethylamine],agonist activity at the 5-HT2C receptor,5-HT2C receptor,agonist activity
COc1ccccc1N1CCN(CCCNc2c(C)c(=O)n(C)c(=O)n2C)CC1 [5-methylurapidil],effect on IOP,[3],lowers IOP
"CCCN(CCC)C1CCc2cccc(O)c2C1 (stereo not drawn) [Compound 8-OH-DPAT, 8-hydroxy-2-(di-n-propylamino)tetralin]",effect on IOP,[4],reduces IOP
COc1cc(CC(C)N)c(OC)cc1I (stereo not drawn) [DOI],"Efficacy (Emax, %)","5-HT2A Receptor [5]; A7r5 cells, percentage of a maximum 5-HT-induced response",31%
same,EC50,"5-HT2A Receptor [5]; A7r5 rat vascular smooth muscle cells, [Ca2+]i mobilization",0.0302 µM
same,IC50,5-HT2A Receptor [6],0.00033 µM
